Legend:
Assay type in all cases: functional
T47D = assay: Cytotoxicity against Homo sapiens (human) T47D cells assessed as growth inhibition at 10 uM after 48 hr by coulter counter analysis; settings: read-out: GI
A498 = assay: Cytotoxicity against Homo sapiens (human) A498 cells assessed as growth inhibition at 10 uM after 48 hr by coulter counter analysis; settings: A498, 48 h, read-out: GI
HOP-92 = assay: Cytotoxicity against Homo sapiens (human) HOP92 cells assessed as growth inhibition at 10 uM after 48 hr by coulter counter analysis; settings: HOP-92, 48 h, read-out: GI
IGROV-1 = assay: Cytotoxicity against Homo sapiens (human) IGROV1 cells assessed as growth inhibition at 10 uM after 48 hr by coulter counter analysis; settings: IGROV-1, 48 h, read-out: GI
SF-295 = assay: Cytotoxicity against Homo sapiens (human) SF295 cells assessed as growth inhibition at 10 uM after 48 hr by coulter counter analysis; settings: SF-295, 48 h, read-out: GI
HCT-15 = assay: Cytotoxicity against Homo sapiens (human) HCT15 cells assessed as growth inhibition at 10 uM after 48 hr by coulter counter analysis; settings: HCT-15, 48 h, read-out: GI
COLO 205 = assay: Cytotoxicity against Homo sapiens (human) COLO205 cells assessed as growth inhibition at 10 uM after 48 hr by coulter counter analysis; settings: COLO 205, 48 h, read-out: GI
NCI-H226 = assay: Cytotoxicity against Homo sapiens (human) NCI-H226 cells assessed as growth inhibition at 10 uM after 48 hr by coulter counter analysis; settings: NCI-H226, 48 h, read-out: GI
HCC 2998 = assay: Cytotoxicity against Homo sapiens (human) HCC2998 cells assessed as growth inhibition at 10 uM after 48 hr by coulter counter analysis; settings: HCC 2998, 48 h, read-out: GI
MCF7 = assay: Cytotoxicity against Homo sapiens (human) MCF7 cells assessed as growth inhibition at 10 uM after 48 hr by coulter counter analysis; settings: MCF7, 48 h, read-out: GI
ACHN = assay: Cytotoxicity against Homo sapiens (human) ACHN cells assessed as growth inhibition at 10 uM after 48 hr by coulter counter analysis; settings: read-out: GI
SK-OV-3 = assay: Cytotoxicity against Homo sapiens (human) SKOV3 cells assessed as growth inhibition at 10 uM after 48 hr by coulter counter analysis; settings: SK-OV-3, 48 h, read-out: GI
MOLT-4 = assay: Cytotoxicity against Homo sapiens (human) MOLT4 cells assessed as growth inhibition at 10 uM after 48 hr by coulter counter analysis; settings: MOLT-4, 48 h, read-out: GI
TK-10 = assay: Cytotoxicity against Homo sapiens (human) TK10 cells assessed as growth inhibition at 10 uM after 48 hr by coulter counter analysis; settings: TK-10, 48 h, read-out: GI
SN12C = assay: Cytotoxicity against Homo sapiens (human) SN12C cells assessed as growth inhibition at 10 uM after 48 hr by coulter counter analysis; settings: read-out: GI
786-0 = assay: Cytotoxicity against Homo sapiens (human) 786-0 cells assessed as growth inhibition at 10 uM after 48 hr by coulter counter analysis; settings: 786-0, 48 h, read-out: GI
DU-145 = assay: Cytotoxicity against Homo sapiens (human) DU145 cells assessed as growth inhibition at 10 uM after 48 hr by coulter counter analysis; settings: DU-145, 48 h, read-out: GI
RPMI-8226 = assay: Cytotoxicity against Homo sapiens (human) RPMI8226 cells assessed as growth inhibition at 10 uM after 48 hr by coulter counter analysis; settings: RPMI-8226, 48 h, read-out: GI
SK-MEL-5 = assay: Cytotoxicity against Homo sapiens (human) SK-MEL-5 cells assessed as growth inhibition at 10 uM after 48 hr by coulter counter analysis; settings: SK-MEL-5, 48 h, read-out: GI
OVCAR-5 = assay: Cytotoxicity against Homo sapiens (human) OVCAR5 cells assessed as growth inhibition at 10 uM after 48 hr by coulter counter analysis; settings: OVCAR-5, 48 h, read-out: GI
NCI-H23 = assay: Cytotoxicity against Homo sapiens (human) NCI-H23 cells assessed as growth inhibition at 10 uM after 48 hr by coulter counter analysis; settings: NCI-H23, 48 h, read-out: GI
SK-MEL-2 = assay: Cytotoxicity against Homo sapiens (human) SK-MEL-2 cells assessed as growth inhibition at 10 uM after 48 hr by coulter counter analysis; settings: SK-MEL-2, 48 h, read-out: GI
SNB-75 = assay: Cytotoxicity against Homo sapiens (human) SNB75 cells assessed as growth inhibition at 10 uM after 48 hr by coulter counter analysis; settings: SNB-75, 48 h, read-out: GI
PC-3 = assay: Cytotoxicity against Homo sapiens (human) PC3 cells assessed as growth inhibition at 10 uM after 48 hr by coulter counter analysis; settings: PC-3, 48 h, read-out: GI
HT-29 = assay: Cytotoxicity against Homo sapiens (human) HT-29 cells assessed as growth inhibition at 10 uM after 48 hr by coulter counter analysis; settings: HT-29, 48 h, read-out: GI
M14 = assay: Cytotoxicity against Homo sapiens (human) M14 cells assessed as growth inhibition at 10 uM after 48 hr by coulter counter analysis; settings: M14, 48 h, read-out: GI
SF-268 = assay: Cytotoxicity against Homo sapiens (human) SF268 cells assessed as growth inhibition at 10 uM after 48 hr by coulter counter analysis; settings: SF-268, 48 h, read-out: GI
MDA-MB-468 = assay: Cytotoxicity against Homo sapiens (human) MDA-MB-468 cells assessed as growth inhibition at 10 uM after 48 hr by coulter counter analysis; settings: MDA-MB-468, 48 h, read-out: GI
EKVX = assay: Cytotoxicity against Homo sapiens (human) EKVX cells assessed as growth inhibition at 10 uM after 48 hr by coulter counter analysis; settings: read-out: GI
SF-539 = assay: Cytotoxicity against Homo sapiens (human) SF539 cells assessed as growth inhibition at 10 uM after 48 hr by coulter counter analysis; settings: SF-539, 48 h, read-out: GI
HL-60(TB) = assay: Cytotoxicity against Homo sapiens (human) HL-60(TB) cells assessed as growth inhibition at 10 uM after 48 hr by coulter counter analysis; settings: HL-60, 48 h, read-out: GI
BT-549 = assay: Cytotoxicity against Homo sapiens (human) BT549 cells assessed as growth inhibition at 10 uM after 48 hr by coulter counter analysis; settings: BT-549, 48 h, read-out: GI
OVCAR-3 = assay: Cytotoxicity against Homo sapiens (human) OVCAR3 cells assessed as growth inhibition at 10 uM after 48 hr by coulter counter analysis; settings: OVCAR-3, 48 h, read-out: GI
MDA-MB-435 = assay: Cytotoxicity against Homo sapiens (human) MDA-MB-435 cells assessed as growth inhibition at 10 uM after 48 hr by coulter counter analysis; settings: MDA-MB-435, 48 h, read-out: GI

SMILES	inhibition of growth at 10 µM (T47D) [%]	inhibition of growth at 10 µM (A498) [%]	inhibition of growth at 10 µM (HOP-92) [%]	inhibition of growth at 10 µM (IGROV-1) [%]	inhibition of growth at 10 µM (SF-295) [%]	inhibition of growth at 10 µM (HCT-15) [%]	inhibition of growth at 10 µM (COLO 205) [%]	inhibition of growth at 10 µM (NCI-H226) [%]	inhibition of growth at 10 µM (HCC 2998) [%]	inhibition of growth at 10 µM (MCF7) [%]	inhibition of growth at 10 µM (ACHN) [%]	inhibition of growth at 10 µM (SK-OV-3) [%]	inhibition of growth at 10 µM (MOLT-4) [%]	inhibition of growth at 10 µM (TK-10) [%]	inhibition of growth at 10 µM (SN12C) [%]	inhibition of growth at 10 µM (786-0) [%]	inhibition of growth at 10 µM (DU-145) [%]	inhibition of growth at 10 µM (RPMI-8226) [%]	inhibition of growth at 10 µM (SK-MEL-5) [%]	inhibition of growth at 10 µM (OVCAR-5) [%]	further results
CN(C)c1ccc(-c2nc3c(c(=O)[nH]2)C(c2ccc(Cl)cc2)C2=C(CCCC2)N3)cc1 (stereo not drawn)	17.6	< 10	35.9	< 10	< 10	< 10	10.2	< 10	< 10	< 10	13.1	< 10	< 10	< 10	14.6	< 10	< 10	< 10	< 10	< 10	inhibition of growth at 10 µM (NCI-H23): 12.4%; inhibition of growth at 10 µM (SK-MEL-2): 10%; inhibition of growth at 10 µM (SNB-75): 12%; inhibition of growth at 10 µM (PC-3): < 10%; inhibition of growth at 10 µM (HT-29): < 10%; inhibition of growth at 10 µM (M14): < 10%; inhibition of growth at 10 µM (SF-268): < 10%; inhibition of growth at 10 µM (MDA-MB-468): < 10%; inhibition of growth at 10 µM (EKVX): < 10%; inhibition of growth at 10 µM (SF-539): < 10%; inhibition of growth at 10 µM (HL-60(TB)): < 10%; inhibition of growth at 10 µM (BT-549): < 10%; inhibition of growth at 10 µM (OVCAR-3): 11.1%; inhibition of growth at 10 µM (MDA-MB-435): < 10%
COc1ccc(-c2nc3c(c(=O)[nH]2)C(c2ccc(Cl)cc2)C2=C(CCCC2)N3)cc1OC (stereo not drawn)	< 10	< 10	< 10	< 10	< 10	< 10	< 10	11	< 10	13.5	< 10	< 10	< 10	< 10	12	< 10	< 10	< 10	13	< 10	inhibition of growth at 10 µM (NCI-H23): < 10%; inhibition of growth at 10 µM (SK-MEL-2): < 10%; inhibition of growth at 10 µM (SNB-75): 11.2%; inhibition of growth at 10 µM (PC-3): 12.5%; inhibition of growth at 10 µM (HT-29): < 10%; inhibition of growth at 10 µM (M14): < 10%; inhibition of growth at 10 µM (SF-268): < 10%; inhibition of growth at 10 µM (MDA-MB-468): < 10%; inhibition of growth at 10 µM (EKVX): < 10%; inhibition of growth at 10 µM (SF-539): < 10%; inhibition of growth at 10 µM (HL-60(TB)): < 10%; inhibition of growth at 10 µM (BT-549): < 10%; inhibition of growth at 10 µM (OVCAR-3): < 10%; inhibition of growth at 10 µM (MDA-MB-435): < 10%

Reference: ChEMBL document CHEMBL3045802, “Synthesis and in vitro antitumor activity of new quinoline, pyrimido[4,5-b]quinoline, [1,2,3]triazino[4,5-b]quinoline, and [1,2,4]triazolo[2,3:3,4]pyrimido[6,5-b]quinoline analogs” (2013)
